Source: patent publication US4661630A, “Carboxylic acid amides and their derivatives” (Eisai Co., Ltd., priority 1982, dated 1987)

Experiments:
[1] = test system: mortality induced by potassium cyanide; assay: Anti-hypoxic activity (mortality induced by potassium cyanide); assay type: in vivo; conditions: 10 to 20 mg/kg, p.o., male STD-ddY mice
[2] = test system: metrazol-induced convulsive death; assay: Anti-metrazol activity (metrazol-induced convulsive death); assay type: in vivo; conditions: oral doses of 20 to 80 mg/kg, male STD-ddY mice
From the text: (a) Anti-metrazol activity of the compounds of the present invention was examined in male STD-ddY mice.

[3] = test system: maximal electroshock seizures in mice; assay: Anti-electroshock convulsion activity (maximal electroshock seizures, method of Goodman et al.); assay type: in vivo; conditions: 2 hours after oral administration, n = 8, 25 mA, 0.25 sec.
Experimental: The effects of the representative compounds of the present invention on maximal electroshock seizures in mice were determined by the method of Goodman et al. [Goodman L. S., Singh Grewal M., Brown W. C. and Swinyard E. A., J. Pharmacol, Exp. Ther., 108, 168-176 (1953)]. At 2 hours after oral administration of test compounds, current (25 mA, 0.25 sec.) was delivered to animals with an electroshock device (made by Unique Medical).

[4] = Acute toxicity (oral LD50); conditions: mouse, in vivo, mice
From the text: (c) Acute toxicity of the compounds of the present invention was relatively low.

Row | SMILES | anti-hypoxic activity (antagonism against mortality induced by potassium cyanide) [1] | antagonism against metrazol-induced convulsive death [2] | Inhibition (%) of tonic extension ([3]; 10 mg/kg p.o.) | Inhibition (%) of tonic extension ([3]; 20 mg/kg p.o.) | Inhibition (%) of tonic extension ([3]; 40 mg/kg p.o.) | Inhibition (%) of tonic extension ([3]; 80 mg/kg p.o.) | Inhibition (%) of tonic extension ([3]; 320 mg/kg p.o.) | LD50 [4]
1 | O=C(Nc1cc(C(F)(F)F)cc(C(F)(F)F)c1)[C@H]1CCCC[C@H]1C(=O)O (relative stereo) [Compound A, cis-2-[(3,5-bistrifluoromethyl)-phenyl-aminocarbonyl]-cyclohexane carboxylic acid] | potent anti-hypoxic activity | dose-dependent antagonism | 25% | 50% | 100% | 100% | 100% | 1000 to 2000 mg/kg
2 | O=C(O)[C@@H]1CCCC[C@H]1C(=O)Nc1cc(C(F)(F)F)cc(C(F)(F)F)c1 (relative stereo) [Compound B, trans-2-[(3,5-bistrifluoromethyl)-phenyl-aminocarbonyl]-cyclohexane carboxylic acid] |  |  |  |  |  | 0% | 100% | 
3 | O=C(Nc1cc(C(F)(F)F)cc(C(F)(F)F)c1)[C@H]1CC=CC[C@H]1C(=O)O (relative stereo) [Compound C, cis-6-[(3,5-bistrifluoromethyl-phenyl)-aminocarbonyl]-3-cyclohexene carboxylic acid] | potent anti-hypoxic activity | dose-dependent antagonism | 12.5% | 100% | 100% | 100% | 100% | 1000 to 2000 mg/kg
4 | O=C(Nc1cc(C(F)(F)F)cc(C(F)(F)F)c1)[C@@H]1[C@@H]2CC[C@@H](C2)[C@@H]1C(=O)O (relative stereo) [Compound E, cis-endo-3-[(3,5-bistrifluoromethyl-phenyl)-aminocarbonyl]-bicyclo-(2,2,1)-heptane-2-carboxylic acid] |  |  |  |  |  | 0% | 100% | 
5 | CC1CC[C@H](C(=O)O)[C@H](C(=O)Nc2cc(C(F)(F)F)cc(C(F)(F)F)c2)C1 (relative stereo) [Compound F, cis-2-[(3,5-bistrifluoromethyl-phenyl)-aminocarbonyl]-4(5)-methyl-cyclohexane carboxylic acid] |  |  |  |  | 50% | 100% | 100% | 
6 | O=C(O)C1=C(C(=O)Nc2cc(C(F)(F)F)cc(C(F)(F)F)c2)CCCC1 [Compound D, 2-[(3,5-bistrifluoromethyl-phenyl)-aminocarbonyl]-1-cyclohexenecarboxylic acid] |  |  |  |  |  | 0% | 100% | 
7 | O=C1C2CCCCC2C(=O)N1c1cc(C(F)(F)F)cc(C(F)(F)F)c1 (stereo not drawn) [Compound G, N-(3,5-bistrifluoromethylphenyl)-cyclohexane-1,2-dicarboximide] |  |  |  |  | 25% | 100% | 100% | 
8 | O=C1C2CC=CCC2C(=O)N1c1cc(C(F)(F)F)cc(C(F)(F)F)c1 (stereo not drawn) [Compound H, N-(3,5-bistrifluoromethylphenyl)-4-cyclohexene-1,2-dicarboximide] |  |  |  |  |  | 50% | 87.5% | 
